The results in this text go back to publication PMC11852925 (2025).

Holding throughout (assay): fluorescence titration, multiwavelength global analysis
Test [1] has as its system ds26 (DNA, duplex) CAATCGGATCGAATTCGATCCGATTG
Conditions: 100 mM KCl, 10 mM K-phosphate pH 7.0, 295 K.

Test [2] relates to c-myc22 (DNA, G4) GAGGGTGGGGAGGGTGGGGAAG
Conditions: 100 mM KCl, 10 mM K-phosphate pH 7.0, 295 K, 1:1 complex.

Test [3] has as its system hTel45 (DNA, G4) GGGTTAGGGTTAGGGTTAGGGTTAGGGTTAGGGTTAGGGTTAGGG
Conditions: 100 mM KCl, 10 mM K-phosphate pH 7.0, 295 K.

Test [4] has as its system hTel22 (DNA, G4) AGGGTTAGGGTTAGGGTTAGGG
The settings on record: 100 mM KCl, 10 mM K-phosphate pH 7.0, 295 K, 1:1 complex.

On to `CCCNC(=O)c1ccc2[nH]c3c([nH]c2c1)c1c(=O)n(CCCN(C)C)c(=O)c2ccc4c(=O)n(CCCN(C)C)c(=O)c3c4c21`, for which the logK in test [1] (per site of 1:2 complex, cumulative 1:2 15.25, 1:4 29.15) turned out to be 7.6; in test [2] (dimerization (logK 6.6) included, cumulative 1:2 14.74) it was 6.89 ± 0.05; in test [3] (cumulative constant of 1:2 (DNA:ligand) complex, 1:4 28.6, dimerization included), 14.41 ± 0.05; in test [4] (ligand dimerization (logK 6.6) included, cumulative 1:2 logK 14.04), 7.64 ± 0.16.
Regarding `CN(C)CCCN1C(=O)c2ccc3c4c(c(NCCCCCCCNC(=O)c5ccc6[nH]c7c([nH]c6c5)c5c(=O)n(CCCN(C)C)c(=O)c6ccc8c(=O)n(CCCN(C)C)c(=O)c7c8c65)cc(c24)C1=O)C(=O)N(CCCN(C)C)C3=O`, the logK in test [1] (1:1 complex, cumulative 1:2 12.95, 1:3 18.35) was found to be 6.50 ± 0.03; in test [2] (cumulative 1:2 13.78), 6.16 ± 0.02; in test [3] (1:1 complex, cumulative 1:2 12.94, 1:4 25.52, 2:1 13.24), 7.91 ± 0.07; in test [4] (cumulative 1:2 15.71, 2:1 (DNA:dyad) 14.14), 8.93 ± 0.07.
For the compound `CN(C)CCCN1C(=O)c2ccc3c4c(c(NCc5cn(CCCNC(=O)c6ccc7[nH]c8c([nH]c7c6)c6c(=O)n(CCCN(C)C)c(=O)c7ccc9c(=O)n(CCCN(C)C)c(=O)c8c9c76)nn5)cc(c24)C1=O)C(=O)N(CCCN(C)C)C3=O`, the logK is on record as 5.82 ± 0.02 in test [1] (1:1 complex, cumulative 1:2 12.48, 1:3 17.70); 7.77 ± 0.12 in test [2] (cumulative 1:2 14.36, 2:1 11.69); 13.80 ± 0.05 in test [3] (cumulative constant of 1:2 (DNA:dyad) complex, 1:4 26.88, 2:1 11.55); 7.67 ± 0.05 in test [4] (cumulative 1:2 14.68, 1:3 20.37).
